What all share (format): functional, cell-based
One experiment concerns HepG2. The experiment in a line: Cytotoxicity against human HepG2 cells assessed as inhibition of cell growth incubated for 24 hrs by MTT assay. The conditions noted are these: HepG2, 24 h. A general note: Formazan colour is commonly taken as a measure of viable cells.
The test system of a further experiment is HeLa. Briefly: Cytotoxicity against human HeLa cells assessed as inhibition of cell growth incubated for 24 hrs by MTT assay.
The test system of another experiment is MGC-803. Briefly: Cytotoxicity against human MGC-803 cells assessed as inhibition of cell growth incubated for 24 hrs by MTT assay. The conditions noted are these: MGC-803, 24 h.
The test system of another experiment is MCF7. The experiment in a line: Cytotoxicity against human MCF7 cells assessed as inhibition of cell growth incubated for 24 hrs by MTT assay. The conditions noted are these: MCF7, 24 h.

With `CC[C@H](C)[C@@H]1NC(=O)[C@@H](Cc2ccccc2)NC(=O)c2csc(n2)-c2csc(n2)-c2csc(n2)CNC1=O`, the IC50 (in general, the point on the concentration scale where inhibition reaches its midpoint) turned out to be 4.5 µM with HepG2, 4.6 µM in the experiment with HeLa, 5.8 µM in the experiment with MGC-803 and 2.4 µM in the experiment on MCF7.

Consider `CC[C@H](C)[C@@H]1NC(=O)[C@@H](Cc2ccccc2)NC(=O)c2csc(n2)-c2csc(n2)-c2csc(n2)[C@@H](C)NC1=O`, for which the IC50 turned out to be 4.1 µM in the experiment on HepG2, 1.5 µM with HeLa, 0.8 µM in the experiment with MGC-803 and 0.5 µM with MCF7.

As to `CC[C@H](C)[C@H](NC(=O)[C@@H](Cc1ccccc1)NC(C)=O)C(=O)N[C@H](C)c1nc(-c2nc(-c3nc(C(=O)O)cs3)cs2)cs1`, the IC50 in the experiment on HepG2, in the experiment on HeLa, in the experiment on MGC-803 and with MCF7 was greater than 50 µM throughout.

As for `CC[C@H](C)[C@@H]1NC(=O)[C@@H](Cc2ccccc2)NC(=O)c2csc(n2)-c2csc(n2)-c2csc(n2)[C@H](C)NC1=O`, the IC50 worked out at 13.1 µM in the experiment with HepG2, 29.6 µM in the experiment with HeLa, 16.4 µM in the experiment on MGC-803 and 10 µM in the experiment with MCF7.

For `CC(C)[C@@H]1NC(=O)[C@@H](Cc2ccccc2)NC(=O)c2csc(n2)-c2csc(n2)-c2csc(n2)[C@@H](C)NC1=O`, the IC50 amounted to 5 µM in the experiment with HepG2, 8 µM in the experiment on HeLa, 2.9 µM in the experiment on MGC-803 and 3 µM with MCF7.

As to `CC[C@H](C)[C@H](NC(=O)[C@H](N)Cc1ccccc1)C(=O)N[C@H](C)c1nc(-c2nc(-c3nc(C(=O)O)cs3)cs2)cs1`, the IC50 with HepG2, in the experiment with HeLa, with MGC-803 and with MCF7 was greater than 50 µM in each case.

For the compound `CC[C@H](C)[C@@H]1NC(=O)[C@@H](Cc2ccccc2)NC(=O)c2csc(n2)-c2csc(n2)[C@@H](C)NC1=O`, the IC50 in the experiment on HepG2, in the experiment on HeLa, in the experiment on MGC-803 and in the experiment on MCF7 was greater than 50 µM throughout.

With `CC[C@H](C)[C@@H]1NC(=O)[C@@H](Cc2ccccc2)NC(=O)c2csc(n2)-c2csc(n2)-c2csc(n2)[C@@H](CO)NC1=O`, the IC50 with HepG2 is greater than 50 µM; in the experiment on HeLa it was 16.3 µM; in the experiment with MGC-803, 15.7 µM; in the experiment on MCF7 it was 12.4 µM.

The values are drawn from ChEMBL document CHEMBL5120898, “Bathiapeptides: Polythiazole-Containing Peptides from a Marine Biofilm-Derived Bacillus sp” (J Nat Prod, 2022).
